In patent US8592370B2, “Combination of insulin with triazine derivatives” (Poxel S.A.S., priority 2008, dated 2013):

Legend:
[1] = system: hyperglycemic and hypoinsulinemic Type 1 rat models (Streptozotocin); experiment: Fasting plasma glucose in STZ Type 1 rat model, insulin pellets with or without EMD; type: in vivo
Method: (§1) The study was performed in hyperglycemic and hypoinsulinemic Type 1 rat models obtained by injection of high dose of Streptozotocin (STZ). Male Wistar rats (Charles River) were treated with STZ at 62.5 mg/kg IP. Rats were screened for baseline glucose levels three days after STZ injection. The animals with glucose levels below 35-40 mmol/l were excluded from this study. After selection, pellets of insulin were subcutaneously implanted (1+½ implants) at day 3. The release rate for each implant was 2 U per 24 h. In these experimental conditions each rat was infused with 3 U per 24 h of insulin for 40 days approximately (Limplant LINSHIN CANADA). 5,6-dihydro-4-dimethylamino-2-imino-6-methyl-1,3,5-triazine was orally administered at two doses, 75 and 150 mg/kg b.i.d., 10 days after induction of diabetes. Further experimental details are known to the skilled artisan, e.g. by the disclosure of WO 2003/092726, and can be easily modified as a matter of routine.

[2] = system: hyperglycemic and hypoinsulinemic Type 1 rat models (Streptozotocin); experiment: Oral glucose tolerance test (OGTT), plasma glucose after 36 days of treatment; type: in vivo; settings: insulin alone
Method: as §1
The determination how quickly administered glucose is cleared form the blood was conducted by means of a glucose tolerance test. The glucose was orally given; so the common test was technically an oral glucose tolerance test (OGTT), which is well-known to the skilled artisan. The laboratory animal was fasting for 18 hours before it was administered a glucose solution. Blood was drawn at intervals (cf. Table 3) for measurement of glucose (blood sugar), and additionally insulin levels were measured to detect the degree of IR or deficiency, respectively. For diabetes screening, the most important sample is the 2 hour sample, whose blood sugar value is enhanced at mammals with diminished insulin secretion or IR.

Row | Molecule | Fasting plasma glucose ([1]; EMD 75 mg/kg b.i.d. oral + insulin pellets 3 U per 24 h, day 36) [mmol/L] | Fasting plasma glucose ([1]; EMD 150 mg/kg b.i.d. oral + insulin pellets 3 U per 24 h, day 36) [mmol/L] | Fasting plasma glucose ([1]; insulin pellets 3 U per 24 h alone, day 0 (before treatment)) [mmol/L] | Fasting plasma glucose ([1]; insulin pellets 3 U per 24 h alone, day 8) [mmol/L] | Fasting plasma glucose ([1]; insulin pellets 3 U per 24 h alone, day 15) [mmol/L] | Fasting plasma glucose ([1]; insulin pellets 3 U per 24 h alone, day 22) [mmol/L] | Fasting plasma glucose ([1]; insulin pellets 3 U per 24 h alone, day 36) [mmol/L] | Fasting plasma glucose ([1]; insulin pellets 3 U per 24 h alone, day 36, listed as insulin pellets) [mmol/L] | OGTT plasma glucose ([2]; 0 min) [mmol/L] | OGTT plasma glucose ([2]; 10 min) [mmol/L] | OGTT plasma glucose ([2]; 20 min) [mmol/L] | OGTT plasma glucose ([2]; 30 min) [mmol/L] | OGTT plasma glucose ([2]; 45 min) [mmol/L] | OGTT plasma glucose ([2]; 60 min) [mmol/L] | OGTT plasma glucose ([2]; 90 min) [mmol/L] | OGTT plasma glucose ([2]; 120 min) [mmol/L]
1 | CC1NC(=N)N=C(N(C)C)N1 (stereo not shown) [EMD, 5,6-dihydro-4-dimethylamino-2-imino-6-methyl-1,3,5-triazine] | 18.86 ± 2.77 | 14.85 ± 2.03 |  |  |  |  |  |  |  |  |  |  |  |  |  | 
2 | control + insulin: subcutaneously implanted insulin pellets releasing 3 U per 24 h (Limplant LINSHIN CANADA); insulin alone group |  |  | 33.20 | 17.22 | 11.25 | 16.66 | 21.46 | 21.46 ± 3.1 | 21.46 | 22.73 | 26.98 | 27.83 | 28.04 | 25.59 | 20.35 | 16.91
